Experimental data published in article PMC9051106, “Structural insights into TRPV2 activation by small molecules” (Nature Communications, 2022).
“And” between values parts separate entries of the source, which are not always exact repeats. Equal values may be shown once.

How the values were obtained:
wildtype rat TRPV2 [1] = target: T1, wildtype rat TRPV2 (Rattus norvegicus, UniProt Q9WUD2); assay: Whole-cell patch recordings, current density with 2-APB alone and 2-APB co-applied with CBD; assay type: cell-based; parameters: expressed in transfected cells; host or cells: HEK293T; details: for current density: Mean ± SEM, N = 7
T1 sequence (Q9WUD2 1-761): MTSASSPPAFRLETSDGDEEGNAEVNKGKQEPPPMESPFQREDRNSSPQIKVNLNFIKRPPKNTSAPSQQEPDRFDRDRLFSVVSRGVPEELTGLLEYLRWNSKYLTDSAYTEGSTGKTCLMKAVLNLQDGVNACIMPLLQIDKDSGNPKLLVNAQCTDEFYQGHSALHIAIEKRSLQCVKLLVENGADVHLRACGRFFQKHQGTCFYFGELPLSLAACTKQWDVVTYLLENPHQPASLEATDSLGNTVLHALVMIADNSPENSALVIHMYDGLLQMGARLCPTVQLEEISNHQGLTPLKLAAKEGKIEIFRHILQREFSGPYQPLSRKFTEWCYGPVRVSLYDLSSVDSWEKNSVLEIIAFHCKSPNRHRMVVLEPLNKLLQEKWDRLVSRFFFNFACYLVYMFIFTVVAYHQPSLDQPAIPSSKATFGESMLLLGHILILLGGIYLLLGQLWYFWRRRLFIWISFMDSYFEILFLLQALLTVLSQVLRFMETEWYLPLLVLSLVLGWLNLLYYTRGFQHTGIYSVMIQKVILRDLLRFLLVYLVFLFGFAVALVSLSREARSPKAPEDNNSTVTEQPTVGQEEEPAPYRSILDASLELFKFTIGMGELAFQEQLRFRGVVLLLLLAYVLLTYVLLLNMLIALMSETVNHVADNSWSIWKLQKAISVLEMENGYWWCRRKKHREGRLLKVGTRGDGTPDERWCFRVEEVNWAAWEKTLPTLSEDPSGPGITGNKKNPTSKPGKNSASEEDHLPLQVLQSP
Method: (§1) Nanofectin (PAA, Pasching, Austria) was used to transfect HEK293T cells with WT rat TRPV2, Arg535Lys rat TRPV2, Arg539Lys rat TRPV2, His521Ala rat TRPV2, His521Asn rat TRPV2, His521Ala/Arg539Lys rat TRPV2, Thr522Ala rat TRPV2 and Tyr525Ala rat TRPV2. Mutants were generated according to the instructions of the manufacturer by site directed mutagenesis with the quick-change lightning site-directed mutagenesis kit (Aglient, Waldbronn, Germany). […] Cells were cultured at 37 °C with 5% CO2 in Dulbecco’s modified Eagle medium nutrient mixture F12 (DMEM/F12 Gibco/Invitrogen, Darmstadt, Germany) and supplemented with 10% fetal bovine serum, (Biochrom, Berlin, Germany).
(§2) Whole-cell voltage clamp was performed with an EPC10 USB HEKA amplifier (HEKA Electronik, Lamprecht, Germany), much as previously described. Signals were low passed at 1 kHz and sampled at 2–10 kHz. Patch pipettes were pulled from borosilicate glass tubes (TW150F-3; World Precision Instruments, Berlin, Germany) to give a resistance of about 3 MΩ. Cells were held at −60 mV and all recordings were performed at room temperature. The external solution contained: 140 mM NaCl, 5 mM KCl, 2 mM MgCl2, 5 mM EGTA, 10 mM glucose, and 10 mM HEPES, pH 7.4 (adjusted with NaOH). Calcium was omitted in order to avoid desensitization. The standard pipette solution contained: 140 mM KCl, 2 mM MgCl2, 5 mM EGTA and 10 mM HEPES, pH 7.4 (adjusted with KOH). A gravity-driven glass multi-barrel perfusion system was used to bath apply solutions. Data acquisition and off-line analyses required Patchmaster/Fitmaster software (HEKA Electronik, Lamprecht, Germany) and Origin 8.5.1 (Origin Lab, Northampton, MA, USA).

Arg539Lys rat TRPV2 = Arg539Lys rat TRPV2 (Rattus norvegicus, UniProt Q9WUD2, R539K)
Method: as §1, §2

His521Asn rat TRPV2 = His521Asn rat TRPV2 (Rattus norvegicus, UniProt Q9WUD2, H521N)
Method: as §1, §2

wildtype rat TRPV2 [2] = target: T1, wildtype rat TRPV2
Method: as §1, §2

Thr522Ala rat TRPV2 = Thr522Ala rat TRPV2 (Rattus norvegicus, UniProt Q9WUD2, T522A)
Method: as §1, §2

[3] = target: His521Ala/Arg539Lys rat TRPV2 (Rattus norvegicus, UniProt Q9WUD2, H521A/R539K)
Method: as §1, §2

His521Ala rat TRPV2 = His521Ala rat TRPV2 (Rattus norvegicus, UniProt Q9WUD2, H521A)
Method: as §1, §2

Arg535Lys rat TRPV2 = Arg535Lys rat TRPV2 (Rattus norvegicus, UniProt Q9WUD2, R535K)
Method: as §1, §2

Tyr525Ala rat TRPV2 = Tyr525Ala rat TRPV2 (Rattus norvegicus, UniProt Q9WUD2, Y525A); details: with either 2-APB or heat
Method: as §1, §2

[4] = HEK293T, held at −60 mV, mean ± S.E.M.

Chain of Arg539Lys rat TRPV2 (Q9WUD2 whole entry R539K): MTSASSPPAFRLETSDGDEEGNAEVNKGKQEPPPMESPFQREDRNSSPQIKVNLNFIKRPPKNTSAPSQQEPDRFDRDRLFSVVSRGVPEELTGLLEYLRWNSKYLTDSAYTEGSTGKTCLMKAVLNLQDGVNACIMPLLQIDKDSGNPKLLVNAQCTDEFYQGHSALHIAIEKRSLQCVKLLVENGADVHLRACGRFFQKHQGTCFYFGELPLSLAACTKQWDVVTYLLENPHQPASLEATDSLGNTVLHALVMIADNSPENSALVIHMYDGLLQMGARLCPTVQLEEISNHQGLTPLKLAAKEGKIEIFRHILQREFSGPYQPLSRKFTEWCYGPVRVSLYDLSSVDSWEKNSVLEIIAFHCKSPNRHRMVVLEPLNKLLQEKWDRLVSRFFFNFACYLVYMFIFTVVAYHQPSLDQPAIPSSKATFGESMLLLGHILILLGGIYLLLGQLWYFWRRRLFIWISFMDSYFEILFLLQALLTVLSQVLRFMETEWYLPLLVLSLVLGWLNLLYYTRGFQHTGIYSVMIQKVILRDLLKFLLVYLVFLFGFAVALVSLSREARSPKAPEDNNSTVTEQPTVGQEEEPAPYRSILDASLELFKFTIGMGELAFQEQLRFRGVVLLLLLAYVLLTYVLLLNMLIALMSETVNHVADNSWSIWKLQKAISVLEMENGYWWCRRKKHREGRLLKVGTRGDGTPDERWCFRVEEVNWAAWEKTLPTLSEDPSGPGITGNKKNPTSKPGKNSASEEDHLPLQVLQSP
Chain of His521Ala/Arg539Lys rat TRPV2 (Q9WUD2 whole entry H521A/R539K): as the sequence (Q9WUD2 whole entry R539K) above, with H521A counted along it
Chain of Arg535Lys rat TRPV2 (Q9WUD2 whole entry R535K): as the sequence (Q9WUD2 whole entry R539K) above, with R535K, K539R counted along it
Chain of Thr522Ala rat TRPV2 (Q9WUD2 whole entry T522A): as the sequence (Q9WUD2 whole entry R539K) above, with T522A, K539R counted along it
Chain of His521Ala rat TRPV2 (Q9WUD2 whole entry H521A): as the sequence (Q9WUD2 whole entry R539K) above, with H521A, K539R counted along it
Chain of His521Asn rat TRPV2 (Q9WUD2 whole entry H521N): as the sequence (Q9WUD2 whole entry R539K) above, with H521N, K539R counted along it
Chain of Tyr525Ala rat TRPV2 (Q9WUD2 whole entry Y525A): as the sequence (Q9WUD2 whole entry R539K) above, with Y525A, K539R counted along it

current density (wildtype rat TRPV2 [1]; 2-APB alone 10 μM): 0.98 ± 0.1 pA/pF | current density (wildtype rat TRPV2 [1]; 2-APB alone 30 μM): 2.8 ± 0.3 pA/pF | current density (wildtype rat TRPV2 [1]; 2-APB alone 100 μM): 24.9 ± 3.7 pA/pF | Hill coefficient (Arg539Lys rat TRPV2; Arg539Lys): 5.6 ± 1.1 | EC50 (Arg539Lys rat TRPV2; Arg539Lys, HEK293T, held at −60 mV, mean ± S.E.M.): 683 ± 78 µM | Current (minus Leak) (Arg539Lys rat TRPV2; rTRPV2 - R539K, 2-APB 50µM, single cell): 6.3 and 7.05 and 6.6 | Hill coefficient (His521Asn rat TRPV2): 4.3 ± 0.3 | EC50 (His521Asn rat TRPV2; HEK293T, held at −60 mV): 742 ± 14 µM | Hill coefficient (wildtype rat TRPV2 [2]; wildtype): 3.0 ± 0.2 | EC50 (wildtype rat TRPV2 [2]; wildtype rat TRPV2, HEK293T, held at −60 mV, mean ± S.E.M.): 322 ± 27 µM | Hill coefficient (Thr522Ala rat TRPV2): 3.0 ± 0.3 | EC50 (Thr522Ala rat TRPV2; [4]): 232 ± 43 µM | Hill coefficient ([3]; His521Ala/Arg539Lys): 5.2 ± 0.6 | EC50 ([3]; His521Ala/Arg539Lys, HEK293T, held at −60 mV, mean ± S.E.M.): 1750 ± 125 µM | decrease in 2-APB sensitivity ([3]; double mutant compared to the wildtype TRPV2): fivefold | Hill coefficient (His521Ala rat TRPV2): 3.3 ± 0.3 | EC50 (His521Ala rat TRPV2; [4]): 991 ± 131 µM | Hill coefficient (Arg535Lys rat TRPV2): 3.3 ± 0.5 | EC50 (Arg535Lys rat TRPV2; [4]): 79 ± 11 µM | membrane currents evoked (Tyr525Ala rat TRPV2): could not evoke any membrane currents
Compound: NCCOB(c1ccccc1)c1ccccc1 [2-APB, 2-aminoethoxydiphenyl borate]
current (wildtype rat TRPV2 [1]; 2-APB alone 10 µM, single cell): 12.35 and 14.18 and 12.95 and 20 and 11.76 and 11.18
